Assay results taken from patent US20070015827A1, “Methods and compositions for treating ophthalmic conditions via serum retinol, serum retinol binding protein (RBP), and/or serum retinol-RBP modulation” (Sytera, Inc., priority 2005, published 2007).
Entries after “also recorded” stand apart in the source; their conditions may differ.

Assays:
[1] = molecular target: Apo-RBP (Homo sapiens, UniProt P02753); assay: Fluorescence quenching study with Apo-RBP (Example 15); format: binding
Method: Apo-RBP at 0.5 μM was incubated with 0, 0.25, 0.5, 1 and 2 μM of MPR in PBS at room temperature for 1 hour, respectively. As controls, the same concentration of Apo-RBP was also incubated with 1 μM of HPR or 1 μM of atROL. All mixtures contained 0.2% Ethanol (v/v). The emission spectra were measured between 290 nm to 550 nm with excitation wavelength at 280 nm and 3 nm bandpass.

[2] = molecular target: TTR binding to RBP (Homo sapiens, UniProt P02753); assay: Size exclusion study of TTR binding to RBP (Example 16); settings: for binding of ligand-RBP to TTR: 10 μM RBP, 10 μM TTR, room temperature, 1 hour
Method: Apo-RBP at 10 μM was incubated with 50 μM of MPR in PBS at room temperature for 1 hour. 10 μM of TTR was then added to the solution, and the mixture was incubated for another hour at room temperature. 50 μl of the sample mixtures with and without TTR addition were analyzed by BioRad Bio-Sil SEC125 Gel Filtration Column (300×7.8 mm). In control experiments, atROL-RBP and atROL-RBP-TTR mixture were analyzed in the same manner.

[3] = test system: abca4 null mutant mice; assay: A2E and A2PE-H2 in eyes after chronic treatment (HPLC); format: in vivo, mouse; settings: 13-cis retinoic acid 40 mg/kg, chronic (1 month)
Method: Tissue Extraction. Eye samples were thawed on ice in 1 ml of PBS, pH 7.2 and homogenized by hand using a Duall glass-glass homogenizer. The sample was further homogenized following the addition of 1 ml chlorofomm/methanol (2:1, v/v). The sample was transferred to a boroscilicate tube and lipids were extracted into 4 mls of chloroform. The organic extract was washed with 3 mls PBS, pH 7.2 and the samples were then centrifuged at 3,000×g, 10 min. The choloroform phase was decanted and the aqueous phase was re-extracted with another 4 mls of chloroform. Following centrifugation, the chloroform phases were combined and the samples were taken to dryness under nitrogen gas. Samples residues were resuspended in 100 μl hexane and analyzed by HPLC as described below.
HPLC Analysis. Chromatographic separations were achieved on an Agilent Zorbax Rx-Sil Column (5 μm, 4.6×250 mm) using an Agilent 1100 series liquid chromatograph equipped with fluorescence and diode array detectors. The mobile phase (hexane/2-propanol/ethanol/25 mM KH2PO4, pH 7.0/acetic acid; 485/376/100/50/0.275, v/v) was delivered at 1 ml/min. Sample peak identification was made by comparison to retention time and absorbance spectra of authentic standards. Data are reported as peak fluorescence (L.U.) obtained from the fluorescence detector.
We initiated a one-month study to evaluate the effects of HPR on reduction of A2E and A2E precursors in abca4 null mutant mice. HPR was administered in DMSO (20 mg/kg, ip) to abca4 null mutant mice (BL6/129, aged 2 months) daily for a period of 28 days. Control age/strain matched mice received only the DMSO vehicle. Mice were sampled at 0, 14, and 28 days (n=3 per group), the eyes were enucleated and chloroform-soluble constituents (lipids, retinoids and lipid-retinoid conjugates) were extracted. Mice were sacrificed by cervical dislocation, the eyes were enucleated and individually snap frozen in cryo vials. The sample extracts were then analyzed by HPLC with on-line fluorescence detection. Results from this study show remarkable, early reductions in the A2E precursor, A2PE-H2, see FIG. 4a, and subsequent reductions in A2E, see FIG. 4b. […] A similar study may be undertaken to ascertain effects of HPR treatment on the electroretinographic and morphological phenotypes.
ABCA4 null mutant mice were given the indicated dose of HPR in DMSO or DMSO alone daily for 28 days (n=16 mice per treatment group). At study onset, mice in the 2.5 mg/kg group were 2 months of age, mice in the other treatment groups were 3 months of age. At the indicated times, representative mice were taken from each group (n =4) for analysis of A2E precursor compounds (see FIG. 10, A2PE-H2, panels A, C and E) and A2E (see FIG. 10, panels B, D and F). Eyes were enucleated, hemisected and lipid soluble components were extracted from the posterior pole by chloroform/methanol-water phase partitioning. Sample extracts were analyzed by LC. Identity of the eluted compounds was confirmed by UV-vis absorption spectroscopy and co-elution of sample peaks with authentic standards. Note: limitations in appropriately age and strain-matched mice in the 10 mg/kg group prevented analysis at the 14-day interval.
Extraction and Analysis of Retinoids and A2E. Steady-state levels of retinoids and A2E in eyecups of ABCA4−/− mice were determined following daily administration (28 days) of HPR (FIG. 12). Mice were sacrificed, the eyes enucleated, and the posterior portion of each eye was used for extraction of retinoids or A2E. Methodologies used for extraction of retinoids and A2E from eye tissue and HPLC analysis techniques have been described. See, e.g., Mata N L, Weng J, Travis G H. Biosynthesis of a major lipofuscin fluorophore in mice and humans with ABCR-mediated retinal and macular degeneration. Proc Natl Acad Sci USA. 2000; 97:7154-7159; Weng J, et al.; Cell. 1999;98:13-23; Mata N L, et al.; Invest. Ophthalmol. Visual Sci. 2001; 42:1685-1690. […]

[4] = test system: wild-type and abca4 −/− mice; settings: mouse, in vivo
From the text: Delayed-dark adaptation can be further exacerbated by compounds which reduce the rate of rhodopsin regeneration (e.g., 13-cis retinoic acid). Although compounds such as HPR, which reduce total ocular retinoid levels, may also contribute to delayed-dark adaptation, the effect is less pronounced. This point was illustrated in studies which examined the effects of chronic (1 month) 13-cis retinoic acid or HPR administration on electrophysiology of the retina. […] Following exposure to a light source which bleaches approximately 40% of the visual chromophore, wild-type mice require ˜1 hour to regain dark sensitivity (1.0 value on the y-axis); untreated abca4 −/− mice require ˜3-4 hours. 13-cis retinoic acid treatment prolongs the time required to regain dark sensitivity to several hours. […] This finding is relevant for human patients affected with AMD.
Panels D-F of FIG. 9 are electrophysiological measurements of rod function (panel D), rod and cone function (panel E) and recovery from photobleaching (panel F).

[5] = test system: abca4 −/− mice; assay: A2E levels after withdrawal of chronic treatment; format: in vivo, mouse
Method: Latent Effects of HPR on Arresting A2E Accumulation —One feature identified during the HPR trials was a therapeutic latency effect following withdrawal of HPR. In these studies, chronic treatment of abca4 −/− mice (10 mg HPR/kg, i.p.) was stopped after 28 days. A2E levels were then measured 12, 28 and 42 days following the final HPR dose. […] This effect was not observed in animals treated with 13-cis retinoic acid, a result that may be due to the capacity of RPE cells to adapt to, and maintain, low steady-state retinoid levels. […] These findings indicate that high steady-state levels of competitive inhibitors such as 13-cis retinoic acid must be maintained for therapeutic efficacy.

[6] = test system: mice; settings: cited from earlier work

For `COc1ccc(NC(=O)\C=C(C)/C=C/C=C(C)\C=C\C2=C(C)CCCC2(C)C)cc1` (stereo in doubt) [MPR, N-(4-methoxyphenyl)retinamide], the “binding to RBP relative to HPR” value [1] was “more weakly”, the “quenching of RBP fluorescence” value ([1]; 0.5 μM Apo-RBP, 0-2 μM MPR, PBS, room temperature, 1 hour) was “concentration-dependent quenching” and the “degree of quenching compared with other RBP ligands” value ([1]; controls 1 μM HPR, 1 μM atROL) was “smaller than those by atROL and HPR”. The “MPR concentration at which quenching saturated” value ([1]; for 0.5 μM of RBP) was 1 µM, the “binding to RBP (360 nm absorbance in RBP elution peak)” value ([2]; 10 μM Apo-RBP, 50 μM MPR) was “RBP binds to MPR” and the “binding of ligand-RBP to TTR” value [2] was “did not bind to TTR; also recorded: inhibits the binding of TTR to RBP”.

For `CC1=C(/C=C/C(C)=C/C=C/C(C)=C\C(=O)O)C(C)(C)CCC1` [13-cis retinoic acid], the “reduction in A2E” value [3] was roughly 50%, the “time required to regain dark sensitivity” value [4] was “several hours” and the “A2E levels after withdrawal (therapeutic latency effect)” value ([5]; chronic treatment (HPR 10 mg/kg i.p.) stopped after 28 days, measured 12, 28 and 42 days later) was “not observed”. The “photoreceptor function and ocular retinoid levels following withdrawal” value ([5]; mouse, in vivo) was “quickly returned to baseline values”, the 11-cis retinyl esters ([6]; increased 13-cis retinoic acid) was “increased dramatically” and the “levels of 11-cis retinal” value ([6]; increased doses of 13-cis retinoic acid) was “significantly reduced”.

With `CC1=C(/C=C/C(C)=C/C=C/C(C)=C/CO)C(C)(C)CCC1` [atROL, all-trans retinol] the “binding of ligand-RBP to TTR” value [2] was “binds to TTR”.
